Assay results published in patent US20260250250A1, “3-(SULPHONYL OR SULFONIMIDOYL)PROP-2-EN-1-YL]-2-OXO-1,2-DIHYDROPYRIDINE-3-CARBOXAMIDE DERIVATIVES” (Flinder Therapeutics B.V., priority 2022, published 2026).

Tests used:
[1] = test system: bladder carcinoma RT4 cell line; experiment: TNF-α-induced cytotoxicity assay (CellTiter-Glo viability); format: cell-based; conditions: Homo sapiens, RT-4, 72 h
Experimental: A viability assay, using bladder carcinoma RT4 cell line, was used for identifying the potential inhibitory effect of tested compounds on HOIP activity. The viability was determined by CellTiter-Glo Luminescent Cell Viability Assay (G7571, Promega) which measures the ability of generating a luminescent signal proportional to the amount of ATP present in living cells. The assay consists of a few steps: • a) the cells were routinely sub cultivated twice a week with standard complete growth medium composition; • b) cells were preparated for the assay by creating a cell suspension at the density of 0.05 mln cells/mL and dispensed into plates (ViewPlate-384, PerkinElmer) resulting in 1000 cells/well; • c) cells were stimulated with 1.25 ng/mL TNFα and with compounds and incubated for 72 h at 37° C. in the atmosphere with 5% CO2; and • d) for detection cytotoxicity was measured with CellTiter-Glo® Luminescent Cell Viability Assay based on the method described by the manufacturer.

[2] = target: T1, human E3 ubiquitin-protein ligase RNF31 (HOIP) (Homo sapiens, UniProt Q96EP0); experiment: Cell-free HTRF-based HOIP inhibition assay; format: biochemical
T1 sequence (Q96EP0 695-1072 limits assumed): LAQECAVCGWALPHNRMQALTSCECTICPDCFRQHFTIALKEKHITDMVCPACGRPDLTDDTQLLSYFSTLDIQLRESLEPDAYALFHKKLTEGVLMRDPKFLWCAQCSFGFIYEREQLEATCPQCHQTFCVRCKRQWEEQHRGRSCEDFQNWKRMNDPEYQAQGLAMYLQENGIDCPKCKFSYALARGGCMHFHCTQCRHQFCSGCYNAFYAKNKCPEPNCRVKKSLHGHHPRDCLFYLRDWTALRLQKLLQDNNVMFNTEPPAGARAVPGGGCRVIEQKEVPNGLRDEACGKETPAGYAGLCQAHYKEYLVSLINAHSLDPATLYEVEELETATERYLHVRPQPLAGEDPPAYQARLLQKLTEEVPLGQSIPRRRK
Experimental: This assay was performed in the following steps: • a) synthesis of recombinant fragment of human E3 ubiquitin-protein ligase RNF31 (HOIP), expressed with purity >90% in E. coli system (the protein was prepared as 1 mg/mL stock in a standard formulation); • b) incubation of the compounds in a typical concentration range: 100-0.005 μM, at a final DMSO conc. 1% with a mixture of HOIP and ubiquitin activating enzyme E1 at 25° C., for 1 h at 25° C.; • c) followed by addition of a ubiquitination solution including E2 and substrates (the reaction proceeds for 2.5 h at 25° C.); and • d) HTRF detection was performed using a PHERAstar FSX (BMG Labtech) plate reader (excitation at 337 nm, dual emissions at 665 and 620 nm).

Row | SMILES | IC50 [1] [µM] | IC50 [2] [µM]
1 | N=S(=O)(/C=C/CNC(=O)c1cc2c([nH]c1=O)CCCC2)c1ccc(N2CCCC2)cc1 (stereo not shown) [Example 162, N-[(2E)-3-[imino(oxo)[4-(Pyrrolidin-1-yl)phenyl]-λ^6-sulfanyl]prop-2-en-1-yl]-2-oxo-1,2,5,6,7,8-hexahydroquinoline-3-carboxamide] | ≤ 1 | ≤ 0.1
2 | N=S(=O)(/C=C/CNC(=O)c1cc2c([nH]c1=O)CCCC2)c1ccc(-c2ccccc2)cc1 (stereo not shown) [Example 156, N-[(2E)-3-({[1,1′-biphenyl]-4-yl}(imino)oxo-λ^6-sulfanyl)prop-2-en-1-yl]-2-oxo-1,2,5,6,7,8-hexahydroquinoline-3-carboxamide] | ≤ 1 | ≤ 0.1
3 | COC(C)(C)CC(=O)N1CCc2[nH]c(=O)c(C(=O)NC/C=C/S(=O)(=O)c3ccccc3)cc2C1 [Example 124, N-[(2E)-3-(benzenesulfonyl)prop-2-en-1-yl]-6-(3-methoxy-3-methylbutanoyl)-2-oxo-1,2,5,6,7,8-hexahydro-1,6-naphthyridine-3-carboxamide] |  | ≤ 10
4 | O=C(NC/C=C/S(=O)(=O)c1ccccc1)c1cc2c([nH]c1=O)CCN(C(=O)C1CCN(c3ccccc3)C1)C2 (stereo not shown) [Example 118, N-[(2E)-3-(benzenesulfonyl)prop-2-en-1-yl]-2-oxo-6-(1-phenylpyrrolidine-3-carbonyl)-1,2,5,6,7,8-hexahydro-1,6-naphthyridine-3-carboxamide] |  | ≤ 1
5 | O=C(NC/C=C/S(=O)(=O)c1ccc(Cl)cc1)c1cc(-c2ccccc2)c[nH]c1=O [Example 130, N-[(2E)-3-(4-chlorobenzenesulfonyl)prop-2-en-1-yl]-2-oxo-5-phenyl-1,2-dihydropyridine-3-carboxamide] |  | ≤ 10
6 | N=S(=O)(/C=C/CNC(=O)c1cc2c([nH]c1=O)CCCC2)c1ccc2c(c1)CCO2 (stereo not shown) [Example 167, N-[(2E)-3-[(2,3-dihydro-1-benzofuran-5-yl)(imino)oxo-λ^6-sulfanyl]Prop-2-en-1-yl]-2-oxo-1,2,5,6,7,8-hexahydroquinoline-3-carboxamide] | ≤ 1 | ≤ 1
7 | N#Cc1cc(S(=N)(=O)/C=C/CNC(=O)c2cc3c([nH]c2=O)CCCC3)ccc1N1CCOCC1 (stereo not shown) [Example 175, N-[(2E)-3-{[3-cyano-4-(morpholin-4-yl)phenyl](imino)oxo-λ^6-sulfanyl}prop-2-en-1-yl]-2-oxo-1,2,5,6,7,8-hexahydroquinoline-3-carboxamide] | ≤ 10 | ≤ 0.1
8 | COc1ccc(S(=N)(=O)/C=C/CNC(=O)c2cc3c([nH]c2=O)CCN(CC2CC2)C3)cc1F (stereo not shown) [Example 185, 6-(cyclopropylmethyl)-N-[(2E)-3-[(3-fluoro-4-methoxyphenyl) (imino)oxo-λ^6-sulfanyl]prop-2-en-1-yl]-2-oxo-1,2,5,6,7,8-hexahydro-1,6-naphthyridine-3-carboxamide] | ≤ 100 | ≤ 10
9 | N=S(=O)(/C=C/CNC(=O)c1cc2c([nH]c1=O)CCCC2)c1ccc(N2CCCCC2)cc1 (stereo not shown) [Example 161, N-[(2E)-3-[imino(oxo)[4-(piperidin-1-yl)phenyl]-λ^6-sulfanyl]prop-2-en-1-yl]-2-oxo-1,2,5,6,7,8-hexahydroquinoline-3-carboxamide] | ≤ 1 | 
10 | N=S(=O)(/C=C/CNC(=O)c1cc2c([nH]c1=O)CCCC2)c1ccc(N2CCCCC2=O)cc1 (stereo not shown) [Example 176, N-[(2E)-3-[imino(oxo)[4-(2-oxopiperidin-1-yl)phenyl]-λ^6-sulfanyl]prop-2-en-1-yl]-2-oxo-1,2,5,6,7,8-hexahydroquinoline-3-carboxamide] |  | ≤ 1
11 | CS(=O)(=O)/C=C/CNC(=O)c1cc2c([nH]c1=O)CCCC2 [Example 15, N-[(2E)-3-methanesulfonylprop-2-en-1-yl]-2-oxo-1,2,5,6,7,8-hexahydroquinoline-3-carboxamide] |  | ≤ 10
12 | CC(C)S(=O)(=O)/C=C/CNC(=O)c1cc2c([nH]c1=O)CCCC2 [Example 18, 2-oxo-N-[(2E)-3-(propane-2-sulfonyl)prop-2-en-1-yl]-1,2,5,6,7,8-hexahydroquinoline-3-carboxamide] |  | ≤ 10
13 | CC(C)S(=O)(=O)/C=C\CNC(=O)c1cc2c([nH]c1=O)CCCC2 [Example 20, 2-oxo-N-[(2Z)-3-(propane-2-sulfonyl)prop-2-en-1-yl]-1,2,5,6,7,8-hexahydroquinoline-3-carboxamide] |  | ≤ 100
14 | O=C(NC/C=C/S(=O)(=O)C1CCCC1)c1cc2c([nH]c1=O)CCCC2 [Example 17, N-[(2E)-3-(cyclopentanesulfonyl)prop-2-en-1-yl]-2-oxo-1,2,5,6,7,8-hexahydroquinoline-3-carboxamide] |  | ≤ 10
15 | N#CC1(C(=O)N2CCc3[nH]c(=O)c(C(=O)NC/C=C/S(=O)(=O)c4ccccc4)cc3C2)CCC1 [Example 111, N-[(2E)-3-(benzenesulfonyl)prop-2-en-1-yl]-6-(1-cyanocyclobutanecarbonyl)-2-oxo-1,2,5,6,7,8-hexahydro-1,6-naphthyridine-3-carboxamide] |  | ≤ 10
16 | N=S(=O)(/C=C/CNC(=O)c1cc2c([nH]c1=O)CCCC2)Cc1ccccc1 (stereo not shown) [Example 157, N-[(2E)-3-[benzyl(imino)oxo-λ^6-sulfanyl]prop-2-en-1-yl]-2-oxo-1,2,5,6,7,8-hexahydroquinoline-3-carboxamide] |  | ≤ 10
17 | O=C(NC/C=C/S(=O)(=O)c1ccccc1)c1cc2c([nH]c1=O)CCN(C(=O)C1CC(F)(F)C1)C2 [Example 102, N-[(2E)-3-(benzenesulfonyl)prop-2-en-1-yl]-6-(3,3-difluorocyclobutanecarbonyl)-2-oxo-1,2,5,6,7,8-hexahydro-1,6-naphthyridine-3-carboxamide] |  | ≤ 10
18 | COCCC(=O)N1CCc2[nH]c(=O)c(C(=O)NC/C=C/S(=O)(=O)c3ccccc3)cc2C1 [Example 105, N-[(2E)-3-(benzenesulfonyl)prop-2-en-1-yl]-6-(3-methoxypropanoyl)-2-oxo-1,2,5,6,7,8-hexahydro-1,6-naphthyridine-3-carboxamide] |  | ≤ 1
19 | CC(/C=C/S(=O)(=O)c1ccccc1)NC(=O)c1cc2c([nH]c1=O)CCCC2 (stereo not shown) [Example 14, N-[(3E)-4-(benzenesulfonyl)but-3-en-2-yl]-2-oxo-1,2,5,6,7,8-hexahydroquinoline-3-carboxamide] |  | ≤ 100
20 | O=C(NC/C=C/S(=O)(=O)c1ccccc1)c1cc2c([nH]c1=O)CCN(C(=O)C1CCC(F)(F)CC1)C2 [Example 108, N-[(2E)-3-(benzenesulfonyl)prop-2-en-1-yl]-6-(4,4-difluorocyclohexanecarbonyl)-2-oxo-1,2,5,6,7,8-hexahydro-1,6-naphthyridine-3-carboxamide] |  | ≤ 10
21 | CC(=O)N1CCc2[nH]c(=O)c(C(=O)NC/C=C/S(=O)(=O)c3ccccc3)cc2C1 [Example 13, 6-acetyl-N-[(2E)-3-(benzenesulfonyl)prop-2-en-1-yl]-2-oxo-1,2,5,6,7,8-hexahydro-1,6-naphthyridine-3-carboxamide] |  | ≤ 10
22 | CC(C)(C)S(=O)(=O)/C=C/CNC(=O)c1cc2c([nH]c1=O)CCCC2 [Example 23, N-[(2E)-3-(2-methylpropane-2-sulfonyl)prop-2-en-1-yl]-2-oxo-1,2,5,6,7,8-hexahydroquinoline-3-carboxamide] |  | ≤ 100
23 | COc1ccc(S(=O)(=O)/C=C/CNC(=O)c2cc3c([nH]c2=O)CCCCC3)cc1F [Example 37, N-[(2E)-3-(3-fluoro-4-methoxybenzenesulfonyl)prop-2-en-1-yl]-2-oxo-1H,2H,5H,6H,7H,8H,9H-cyclohepta[b]pyridine-3-carboxamide] |  | ≤ 10
